Measurements: US12128028B2, “Heterocyclic sulfonamide derivatives and pharmaceutical uses thereof” (METRION BIOSCIENCES LIMITED, priority 2018, dated 2024)

Target: human Kv1.3 (Homo sapiens (Human), UniProt P22001)
Experiment: Kv1.3 potency evaluation, automated patch clamp electrophysiology (QPatch HT) in CHO-Kv1.3 cells
Format: cell-based
Conditions: whole-cell QPatch HT, % inhibition of charge, step to +30 mV, four concentrations, N≥3 cells, read-out: hKv1.3 IC50
Text: Biological Assays Kv1.3 Potency Evaluation Electrophysiology Recordings
A proprietary Chinese hamster ovary cell line stably expressing exogenous human a-subunits of Kv1.3 (CHO-Kv1.3) channel, validated biophysically and pharmacologically in house, was used to assess the ability of test compounds to block Kv1.3 currents using automated patch clamp electrophysiology. The QPatch HT system (Sophion Bioscience A/S, Denmark) was used with the conventional whole-cell configuration. This system is an automated, chip-based planar patch clamp device allowing for up to 48 parallel independent experiments in one experimental assay run. Cells are added to each well and drawn by suction onto a small aperture to obtain a Gigaohm seal between the cell membrane and treated silicon surface, and whole-cell recordings initiated after access is achieved by suction and/or voltage pulses. The QPatch HT uses static perfusion, whereby a small volume of recording solution or drug is added to a reservoir on the chip and the solution perfuses across the cell through quartz-lined microfluidic channels; this solution is removed by capillary action when the next sample application is made.
CHO-Kv1.3 cells were prepared for experiments by dissociation from T175 cell culture flasks using trypsin-EDTA (0.05%), cells were kept in serum free media in the cell hotel on board the QPatch HT. These cells were sampled, washed and re-suspended in extracellular recording solution by the QPatch HT immediately before application to the recording well site on the chip. Experiments were performed using the following solutions; extracellular solution contained (in mM); 150 NaCl, 10 KCl, 1 MgCl2, 3 CaCl2), 10 Glucose and 10 HEPES (pH 7.4, NaOH) and intracellular solution contained (in mM); 20 KCl, 120 KF, 10 HEPES, 10 EGTA, 5 ATP (pH 7.2, KOH).
The potency (Inhibitory Concentration 50%, IC50) of synthesized compounds against Kv1.3 was determined from concentration-response relationships established by cumulatively applying four escalating concentrations of test compound to an individual cell and a minimum of N≥3 individual cells of data per compound were used to generate the IC50 value.
On achieving the whole-cell configuration; two additions of vehicle (0.1-0.3% DMSO v/v) were applied to each cell in two bolus additions with a two minute recording period between each addition (four minutes total recording time). Following the vehicle period, four concentrations of test sample were applied as two bolus additions per test concentration at two minute intervals, and the effects on current measured during the four minute recording period.
Currents were elicited using a single step voltage protocol. From a holding potential of −80 mV the cell is depolarised to +30 mV (500 ms) resulting in an outward current before finally repolarising the cell by returning to the holding potential. The command voltage was applied at a frequency of 0.067 Hz throughout the duration of the experiment. For each sweep of the voltage protocol membrane current and the passive properties of the individual cells were recorded by QPatch assay software (version 5.2). Cursors were placed to calculate the charge (integral of the current recorded during cursor interval) between 2-490 ms (0.4-99%) of the 500 ms step to +30 mV.
The % inhibition of charge for each test concentration application period was calculated as the reduction in mean charge at the end of each concentration test period relative to the charge value measured at the end of the control (i.e. vehicle) period. Sigmoidal concentration response curves (four parameter logistic curve) were fitted to the % inhibition rom which the IC50 was determined. Curve fits were constrained at 0 and 100%.

Chain of human Kv1.3 (P22001 whole entry): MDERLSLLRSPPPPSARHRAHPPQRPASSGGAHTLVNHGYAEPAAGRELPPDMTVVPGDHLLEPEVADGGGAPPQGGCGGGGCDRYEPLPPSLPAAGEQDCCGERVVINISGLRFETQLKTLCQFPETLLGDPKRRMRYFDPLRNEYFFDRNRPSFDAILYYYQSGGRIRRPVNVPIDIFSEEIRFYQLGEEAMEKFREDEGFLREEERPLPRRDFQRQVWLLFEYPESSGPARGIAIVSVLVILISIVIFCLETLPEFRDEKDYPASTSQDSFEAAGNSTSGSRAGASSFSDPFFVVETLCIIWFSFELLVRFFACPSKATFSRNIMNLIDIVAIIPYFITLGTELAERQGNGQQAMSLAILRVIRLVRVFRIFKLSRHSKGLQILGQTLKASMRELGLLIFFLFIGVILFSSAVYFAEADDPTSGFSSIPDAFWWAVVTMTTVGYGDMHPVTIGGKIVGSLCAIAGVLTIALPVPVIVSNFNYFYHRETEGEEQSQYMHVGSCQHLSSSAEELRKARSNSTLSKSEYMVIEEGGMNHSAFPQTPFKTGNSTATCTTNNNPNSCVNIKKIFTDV

SMILES	IC50
CN(CC1CCC1)C(=O)[C@@]1(C)CN=C(C23CC(N(Cc4ccc(C(F)(F)F)cc4)S(=O)(=O)c4ccc(F)cc4)(C2)C3)N1 (mixture of isomers) [Example 256]	342 nM
CC1(C)N=C(C23CC(N(Cc4ccc(F)c(Cl)c4)S(=O)(=O)c4ccccc4)(C2)C3)N[C@H]1C(=O)NCCC(F)(F)F (mixture of isomers) [Example 65]	53 nM
CC1(C)N=C(C23CC(N(Cc4ccc(Cl)c(F)c4)S(=O)(=O)c4ccccc4)(C2)C3)N[C@H]1C(=O)N1CCC[C@@H](C(F)(F)F)C1 (mixture of isomers) [Example 178]	105 nM
CC1(C)N=C(C23CC(N(Cc4ccc(C(F)(F)F)cc4)S(=O)(=O)c4ccccc4)(C2)C3)NC1C(=O)NCCC(F)(F)F (centres unmarked) [Example 220]	169 nM
O=C(NCC1CCC1)C1NC(C23CC(N(Cc4ccc(C(F)(F)F)cc4)S(=O)(=O)c4ccc(F)cc4)(C2)C3)=NC12CCC2 (centres unmarked) [Example 229]	199 nM
CC(C)NC(=O)C1NC(C23CC(N(Cc4ccc(C(F)(F)F)cc4)S(=O)(=O)c4ccc(F)cc4)(C2)C3)=NC1(C)C (centres unmarked) [Example 208]	143 nM
O=C(NCC1CCC1)[C@H]1CN=C(C23CC(N(Cc4ccc(C(F)(F)F)cc4)S(=O)(=O)c4ccc(F)cc4)(C2)C3)N1 (mixture of isomers) [Example 209]	144 nM
C[C@H](NC(=O)[C@@H]1NC(C23CC(N(Cc4ccc(Cl)c(F)c4)S(=O)(=O)c4ccccc4)(C2)C3)=NC1(C)C)C(F)(F)F (mixture of isomers) [Example 73]	58 nM
CC1(C)N=C(C23CC(N(Cc4ccc(F)cc4)S(=O)(=O)c4ccccc4)(C2)C3)NC1C(=O)NCCC(F)(F)F (centres unmarked) [Example 97]	66 nM
COC1(CNC(=O)C2NC(C34CC(N(Cc5ccc(C(F)(F)F)cc5)S(=O)(=O)c5ccc(F)cc5)(C3)C4)=NC2(C)C)CCC1 (centres unmarked) [Example 237]	217 nM
C[C@]1(C(=O)NCC2CC2)CN=C(C23CC(N(Cc4ccc(C(F)(F)F)cc4)S(=O)(=O)c4ccc(F)cc4)(C2)C3)N1 (mixture of isomers) [Example 218]	168 nM
CC(C)CS(=O)(=O)N(Cc1ccc(Cl)cc1)C12CC(C3=NC(C)(C)[C@H](C(=O)NCCC(F)(F)F)N3)(C1)C2 (mixture of isomers) [Example 54]	50 nM
CC1(C)N=C(C23CC(N(Cc4ccc(Cl)c(Cl)c4)S(=O)(=O)CCC(F)F)(C2)C3)N[C@H]1C(=O)NC[C@H]1CC1(F)F (mixture of isomers) [Example 179]	105 nM
CC1N=C(C23CC(N(Cc4ccc(C(F)(F)F)cc4)S(=O)(=O)c4ccc(F)cc4)(C2)C3)N[C@@]1(C)C(=O)NCCC(F)(F)F (mixture of isomers) [Example 211]	148 nM
CC1(C)N=C(C23CC(N(Cc4ccc(Cl)cc4)S(=O)(=O)c4ccccc4)(C2)C3)NC1C(=O)NCCC(F)(F)F (centres unmarked) [Example 148]	89 nM
CC1(C)CC(CNC(=O)[C@@]2(C)CN=C(C34CC(N(Cc5ccc(C(F)(F)F)cc5)S(=O)(=O)c5ccc(F)cc5)(C3)C4)N2)C1 (mixture of isomers) [Example 289]	1060 nM
CC1(C)N=C(C23CC(N(Cc4ccc(Cl)cc4)S(=O)(=O)c4ccco4)(C2)C3)N[C@H]1C(=O)NCCC(F)(F)F (mixture of isomers) [Example 41]	46 nM
CC1(C)N=C(C23CC(N(Cc4ccc(Cl)c(F)c4)S(=O)(=O)c4ccccc4)(C2)C3)N[C@H]1C(=O)NCC1(F)CC1 (mixture of isomers) [Example 6]	20 nM
CC1(C)N=C(C23CC(N(Cc4ccc(Cl)c(F)c4)S(=O)(=O)c4ccccc4)(C2)C3)N[C@H]1C(=O)NCC1CC1(F)F (mixture of isomers) [Example 14]	33 nM
CC1(C)N=C(C23CC(N(Cc4ccc(Cl)c(Cl)c4)S(=O)(=O)c4ccccc4)(C2)C3)N[C@H]1C(=O)N1CC2(C1)CC(F)(F)C2 (mixture of isomers) [Example 195]	124 nM
CC1(C)N=C(C23CC(N(Cc4ccc(Cl)cc4)S(=O)(=O)c4ccccc4)(C2)C3)N[C@H]1C(=O)NC12CC(C1)C2 (mixture of isomers) [Example 12]	30 nM

SMILES	IC50
CN(C)C(=O)[C@]1(C)CN=C(C23CC(N(Cc4ccc(C(F)(F)F)cc4)S(=O)(=O)c4ccc(F)cc4)(C2)C3)N1 (mixture of isomers) [Example 230]	201 nM
CC1(C)N=C(C23CC(N(Cc4ccc(Cl)cc4)S(=O)(=O)CCC(F)(F)F)(C2)C3)N[C@H]1C(=O)NCCC(F)(F)F (mixture of isomers) [Example 201]	131 nM
CC1(C)N=C(C23CC(N(Cc4ccc(Cl)c(F)c4)S(=O)(=O)c4ccccc4)(C2)C3)N[C@H]1C(=O)NC1CC(F)(F)C1 (mixture of isomers) [Example 114]	73 nM
CC(NC(=O)[C@@]1(C)CN=C(C23CC(N(Cc4ccc(C(F)(F)F)cc4)S(=O)(=O)c4ccc(F)cc4)(C2)C3)N1)C1CCC1 (mixture of isomers) [Example 275]	571 nM
CCCS(=O)(=O)N(Cc1ccc(Cl)cc1)C12CC(C3=NC(C)(C)[C@H](C(=O)NCCC(F)(F)F)N3)(C1)C2 (mixture of isomers) [Example 7]	26 nM
CC1(C)N=C(C23CC(N(Cc4ccc(Cl)cc4)S(C)(=O)=O)(C2)C3)N[C@H]1C(=O)NCCC(F)(F)F (mixture of isomers) [Example 274]	559 nM
CN(C[C@H]1CC1(F)F)C(=O)[C@@H]1NC(C23CC(N(Cc4ccc(Cl)c(F)c4)S(=O)(=O)c4ccccc4)(C2)C3)=NC1(C)C (mixture of isomers) [Example 83]	61 nM
CC1(C)N=C(C23CC(N(Cc4ccc(Cl)cc4)S(=O)(=O)c4ccccc4)(C2)C3)N[C@H]1C(=O)NCCC(F)(F)F (mixture of isomers) [Example 2]	30 nM
CC1(C)N=C(C23CC(N(Cc4ccc(Cl)cc4)S(=O)(=O)c4ccccc4)(C2)C3)N[C@H]1C(=O)N1CCC(F)(F)CC1 (mixture of isomers) [Example 76]	60 nM
CCCS(=O)(=O)N(Cc1ccc(Cl)c(Cl)c1)C12CC(C3=NC(C)(C)[C@H](C(=O)NC4CCC(F)(F)CC4)N3)(C1)C2 (mixture of isomers) [Example 174]	103 nM
CC1(C)N=C(C23CC(N(Cc4ccc(Cl)c(F)c4)S(=O)(=O)c4ccccc4)(C2)C3)N[C@H]1C(=O)NCC1(C(F)(F)F)CCC1 (mixture of isomers) [Example 162]	98 nM
CN(C(=O)[C@@H]1NC(C23CC(N(Cc4ccc(Cl)c(F)c4)S(=O)(=O)c4ccccc4)(C2)C3)=NC1(C)C)C1CC(C(F)F)C1 (mixture of isomers) [Example 38]	45 nM
CC1(C)N=C(C23CC(N(Cc4ccc(Cl)c(F)c4)S(=O)(=O)c4ccccc4)(C2)C3)N[C@H]1C(=O)N1CC(F)(F)C1 (mixture of isomers) [Example 55]	50 nM
CC1(C)N=C(C23CC(N(Cc4ccc(C(F)(F)F)cc4)S(=O)(=O)c4ccc(F)cc4)(C2)C3)NC1C(=O)N1CCCCC1 (centres unmarked) [Example 157]	94 nM
CC1(C)N=C(C23CC(N(Cc4ccc(Cl)c(F)c4)S(=O)(=O)c4ccccc4)(C2)C3)N[C@H]1C(=O)N1CCC(F)(F)C2(CC2)C1 (mixture of isomers) [Example 166]	99 nM
CCCC1(C(=O)NCC2CCC2)CN=C(C23CC(N(Cc4ccc(C(F)(F)F)cc4)S(=O)(=O)c4ccc(F)cc4)(C2)C3)N1 (centres unmarked) [Example 273]	552 nM
CC1(C)N=C(C23CC(N(Cc4ccc(Cl)c(F)c4)S(=O)(=O)c4ccccc4)(C2)C3)N[C@H]1C(=O)NCCC1CC1 (mixture of isomers) [Example 20]	37 nM
CC([C@@H]1CN=C(C23CC(N(Cc4ccc(C(F)(F)F)cc4)S(=O)(=O)c4ccc(F)cc4)(C2)C3)N1)N(C)C (some centres unmarked) [Example 281]	632 nM
CC1(C)N=C(C23CC(N(Cc4ccc(Cl)c(Cl)c4)S(=O)(=O)CCCF)(C2)C3)N[C@H]1C(=O)NCC(F)(F)C(F)(F)F (mixture of isomers) [Example 142]	84 nM
CC1(C)N=C(C23CC(N(Cc4ccc(Cl)c(Cl)c4)S(=O)(=O)CCC(F)F)(C2)C3)N[C@H]1C(=O)NC1CC(C(F)F)C1 (mixture of isomers) [Example 177]	104 nM
